Values joined by “and” are separate entries in the source; they are usually repeats but may differ in a detail not shown here. Identical values can stand only once. Square brackets hold non-standard residues; d marks the D form. Ends that are not written are not given here.
System: growth hormone (GH) release
Assay: In Vivo GH Release in Rats (serum GH by RIA)
Parameters: species or system immature female Sprague-Dawley rats
Conditions: rat serum, i.v., mean ± SEM, six rats
[1] = total dose 10 μg, sacrificed 10 minutes after final injection

Row | Substance | GH Released by Compound in Column A [1] | GH Released by Compound in Column A (total dose 20 (ng as printed), sacrificed 30 minutes after final injection) [ng/mL]
1 | AC[dW]AW[dF]KC-NH2 (cysteine pairing not given here) [Compound 9308] | 10 ± 1 ng/mL | –
2 | CAH[dW]AW[dF]KC-NH2 (cysteine pairing not given here) [Compound 8758] | 37 ± 8 ng/mL and 26 ± 9 ng/mL | 52 ± 7
